These results are taken from ChEMBL document CHEMBL1127644, “Design of orally active, non-peptidic inhibitors of human leukocyte elastase” (J Med Chem, 1994).

Active and inactive are the calls of the source. No cut-off for these calls is given here.

Data set [1] has as its system Cricetinae gen. sp. Put plainly: The compound was evaluated for effective dose after oral dosing. The class given is functional, Cricetulus griseus.
Data set [2] is described as follows: Bioavailability in rat. Format: ADME, organism-based. The conditions noted are these: in vivo, read-out: Bioavailabiility.
The subject of data set [3] is Cricetinae gen. sp. Briefly: Inhibition of Human Leukocyte Elastase (HLE) induced lung hemorrhage in hamster at an oral dose of 2.5 mg/kg. The class given is functional, Cricetulus griseus.
Data set [4] is described as follows: Bioavailability was evaluated in hamster. Format: ADME, organism-based. The conditions noted are these: cricetinae, in vivo; read-out: Bioavailabiility.
Data set [5] is described as follows: Bioavailability was evaluated in dog. The conditions noted are these: in vivo, read-out: Bioavailabiility. The class given is ADME, organism-based, Canis lupus familiaris.
In data set [6] the test system is Cricetinae gen. sp. Briefly: Inhibition of Human Leukocyte Elastase (HLE) induced lung hemorrhage in hamster at an oral dose of 20 mg/kg; […]. The class given is functional, organism-based. More on the design: dose 20 mg/kg. The conditions noted are these: Cricetulus griseus.
The subject of data set [7] is Cricetinae gen. sp. Put plainly: Inhibition of Human Leukocyte Elastase (HLE) induced lung hemorrhage in hamster at an oral dose of 20 mg/kg. Format: functional, Cricetulus griseus.
Data set [8] in a line: Partition coefficient (logP). The class given is physicochemical. The settings on record: octanol/water.

For orientation: ED50 means the dose that gives a 50% effect, or the effect in half of the subjects. A lower ED50 goes with an effect at a small dose. Broadly, the inhibition in vivo is how much of the control response was suppressed. High values mean a strong effect, low ones a weak effect. Compound `CC(C)C(NC(=O)Cn1c(-c2ccc(F)cc2)ncc(N)c1=O)C(=O)C(F)(F)F` (stereo not given) gave an ED50 in the data set on Cricetinae gen. sp. [1] of 7.5 mg/kg. In addition, the bioavailability is 62% in data set [2], 77% in data set [4] and 88% in data set [5]. The same compound returned an inhibition in vivo at 2.5 mg/kg in the data set on Cricetinae gen. sp. [3] of 43%.
Turning to `COC(=O)Nc1cnc(-c2ccc(F)cc2)n(CC(=O)NC(C(=O)C(F)(F)F)C(C)C)c1=O` (stereo not given), the inhibition in vivo at 2.5 mg/kg with Cricetinae gen. sp. [3] worked out at 39%.
With `CC(C)C(NC(=O)Cn1c(-c2ccccc2)ccc(NC(=O)OCc2ccc(C(=O)O)cc2)c1=O)C(=O)C(F)(F)F` (stereo not given), in the data set on Cricetinae gen. sp. [6], the inhibition result is “inactive”.
`CC(C)C(NC(=O)Cn1c(-c2ccc(F)cc2)ncc(NC(=O)OCc2ccccc2)c1=O)C(=O)C(F)(F)F` (stereo not given) yielded an inhibition in vivo at 20 mg/kg in the data set with Cricetinae gen. sp. [7] of 63%.
One may read the logP as the decadic logarithm of the partition coefficient of the neutral form, usually between octanol and water. A low value points to a more hydrophilic compound. Consider `CC(C)C(NC(=O)Cn1c(-c2ccccc2)ccc(NC(=O)OCc2ccccc2)c1=O)C(=O)C(F)(F)F` (stereo not given), for which the inhibition result in the data set with Cricetinae gen. sp. [6] is “inactive”. Further, the logP in data set [8] was > 4.
